From US12479895B2, “C-terminal CDNF and MANF fragments, pharmaceutical compositions comprising same and uses thereof” (MyNeuroCure Oy, priority 2018, dated 2025)

Key:
ER stressed SCG neurons = test: Survival of tunicamycin-treated (ER stressed) SCG sympathetic neurons after microinjection; format: cell-based, mice; conditions: for survived neurons as % compared to neurons grown in the presence of NGF: microinjected into cytoplasm, tunicamycin 2 μM, CDNF (400); for Fold change of survived neurons compared to neurons injected with PBS: data of Table 1 divided by values of PBS
Procedure, shortened: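 Newborn mouse SCG neurons grown 5-6 days with 30 ng/ml NGF, then microinjected with CDNF (FL or C-terminal) plasmids (10 ng/ul, EGFP reporter) or proteins (200 ng/ul, Dextran Texas Red). Tunicamycin (2 μM) added next day. Fluorescent survivors counted blindly after 3 days as % of initial; compared with vector or PBS (ANOVA/Dunnett).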

dopamine neurons = test: Survival of TH-positive dopamine neurons in dissociated midbrain floor cultures; format: cell-based, mouse; conditions: for survived neurons as % compared to neurons grown in the presence of GDNF: 5 days; for Fold change of survived neurons compared to neurons grown without growth factors: data of Table 3 divided by values of no factor
Procedure, shortened: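 Dissociated E13.5 NMRI mouse midbrain floor neurons grown five days in DMEM/F12 with N2, with polypeptides at a range of concentrations, GDNF (100 ng/ml), or nothing. TH-immunopositive neurons were counted by imaging. Values are a percentage of GDNF-maintained TH-positive neurons, as mean ± SEM from at least three independent cultures.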

[1] = Table 1A (FIG. 14), AVG of exp1-2
[2] = Table 1A (FIG. 14), exp1, counted after 3 days
[3] = Table 1A (FIG. 14), exp2, counted after 3 days
[4] = Table 3A (FIG. 15), AVG, 1 ng/ml
[5] = Table 3A (FIG. 15), AVG, 10 ng/ml
[6] = Table 3A (FIG. 15), AVG, 100 ng/ml
[7] = Table 3A (FIG. 15), AVG, 1000 ng/ml
[8] = Table 3A (FIG. 15), exp1, 1 ng/ml
[9] = Table 3A (FIG. 15), exp1, 10 ng/ml
[10] = Table 3A (FIG. 15), exp1, 100 ng/ml
[11] = Table 3A (FIG. 15), exp1, 1000 ng/ml
[12] = Table 3A (FIG. 15), exp2, 1 ng/ml
[13] = Table 3A (FIG. 15), exp2, 10 ng/ml
[14] = Table 3A (FIG. 15), exp2, 100 ng/ml
[15] = Table 3A (FIG. 15), exp2, 1000 ng/ml
[16] = Table 3A (FIG. 15), exp3, 1 ng/ml
[17] = Table 3A (FIG. 15), exp3, 10 ng/ml
[18] = Table 3A (FIG. 15), exp3, 100 ng/ml
[19] = Table 3A (FIG. 15), exp3, 1000 ng/ml

## KYEKTLDLASVDLRKMRVAELKQILHSWGEECRACAEKTDYVNLIQELAPKYA (listed as Homo sapiens) [pep3]
ER stressed SCG neurons; [1]
  survived neurons as % compared to neurons grown in the presence of NGF: 85.46 % NGF
ER stressed SCG neurons; [2]
  survived neurons as % compared to neurons grown in the presence of NGF: 83.08 % NGF
ER stressed SCG neurons; [3]
  survived neurons as % compared to neurons grown in the presence of NGF: 87.84 % NGF
ER stressed SCG neurons; Table 2, AVG
  Fold change of survived neurons compared to neurons injected with PBS: 2.32 Fold to PBS
ER stressed SCG neurons; Table 2, exp1
  Fold change of survived neurons compared to neurons injected with PBS: 2.42 Fold to PBS
ER stressed SCG neurons; Table 2, exp2
  Fold change of survived neurons compared to neurons injected with PBS: 2.21 Fold to PBS
Dopamine neurons; [4]
  survived neurons as % compared to neurons grown in the presence of GDNF: 66.40 % GDNF
Dopamine neurons; [5]
  survived neurons as % compared to neurons grown in the presence of GDNF: 73.60 % GDNF
Dopamine neurons; [6]
  survived neurons as % compared to neurons grown in the presence of GDNF: 74.14 % GDNF
Dopamine neurons; [7]
  survived neurons as % compared to neurons grown in the presence of GDNF: 81.99 % GDNF
Dopamine neurons; [8]
  survived neurons as % compared to neurons grown in the presence of GDNF: 73.87 % GDNF
Dopamine neurons; [9]
  survived neurons as % compared to neurons grown in the presence of GDNF: 74.30 % GDNF
Dopamine neurons; [10]
  survived neurons as % compared to neurons grown in the presence of GDNF: 85.15 % GDNF
Dopamine neurons; [11]
  survived neurons as % compared to neurons grown in the presence of GDNF: 84.53 % GDNF
Dopamine neurons; [12]
  survived neurons as % compared to neurons grown in the presence of GDNF: 62.76 % GDNF
Dopamine neurons; [13]
  survived neurons as % compared to neurons grown in the presence of GDNF: 64.35 % GDNF
Dopamine neurons; [14]
  survived neurons as % compared to neurons grown in the presence of GDNF: 58.79 % GDNF
Dopamine neurons; [15]
  survived neurons as % compared to neurons grown in the presence of GDNF: 80.59 % GDNF
Dopamine neurons; [16]
  survived neurons as % compared to neurons grown in the presence of GDNF: 62.58 % GDNF
Dopamine neurons; [17]
  survived neurons as % compared to neurons grown in the presence of GDNF: 82.16 % GDNF
Dopamine neurons; [18]
  survived neurons as % compared to neurons grown in the presence of GDNF: 78.46 % GDNF
Dopamine neurons; [19]
  survived neurons as % compared to neurons grown in the presence of GDNF: 80.86 % GDNF
Dopamine neurons; Table 4, AVG, 1 ng/ml
  Fold change of survived neurons compared to neurons grown without growth factors: 1.08 fold
Dopamine neurons; Table 4, AVG, 10 ng/ml
  Fold change of survived neurons compared to neurons grown without growth factors: 1.20 fold
Dopamine neurons; Table 4, AVG, 100 ng/ml
  Fold change of survived neurons compared to neurons grown without growth factors: 1.21 fold
Dopamine neurons; Table 4, AVG, 1000 ng/ml
  Fold change of survived neurons compared to neurons grown without growth factors: 1.34 fold
Dopamine neurons; Table 4, exp1, 1 ng/ml
  Fold change of survived neurons compared to neurons grown without growth factors: 1.29 fold
Dopamine neurons; Table 4, exp1, 10 ng/ml
  Fold change of survived neurons compared to neurons grown without growth factors: 1.30 fold
Dopamine neurons; Table 4, exp1, 100 ng/ml
  Fold change of survived neurons compared to neurons grown without growth factors: 1.49 fold
Dopamine neurons; Table 4, exp1, 1000 ng/ml
  Fold change of survived neurons compared to neurons grown without growth factors: 1.48 fold
Dopamine neurons; Table 4, exp2, 1 ng/ml
  Fold change of survived neurons compared to neurons grown without growth factors: 1.00 fold
Dopamine neurons; Table 4, exp2, 10 ng/ml
  Fold change of survived neurons compared to neurons grown without growth factors: 1.02 fold
Dopamine neurons; Table 4, exp2, 100 ng/ml
  Fold change of survived neurons compared to neurons grown without growth factors: 0.93 fold
Dopamine neurons; Table 4, exp2, 1000 ng/ml
  Fold change of survived neurons compared to neurons grown without growth factors: 1.28 fold
Dopamine neurons; Table 4, exp3, 1 ng/ml
  Fold change of survived neurons compared to neurons grown without growth factors: 0.97 fold
Dopamine neurons; Table 4, exp3, 10 ng/ml
  Fold change of survived neurons compared to neurons grown without growth factors: 1.27 fold
Dopamine neurons; Table 4, exp3, 100 ng/ml
  Fold change of survived neurons compared to neurons grown without growth factors: 1.21 fold
Dopamine neurons; Table 4, exp3, 1000 ng/ml
  Fold change of survived neurons compared to neurons grown without growth factors: 1.25 fold

## TLDLASVDLRKMRVAELKQILHSWGEECRASAEKTDYVNLIQELAPKYA (C-CDNF peptide with single amino acid substitution) [pep10]
ER stressed SCG neurons; Table 1B (FIG. 16), exp1, counted after 3 days
  survived neurons as % compared to neurons grown in the presence of NGF: 42.46 % NGF
ER stressed SCG neurons; Table 1B (FIG. 16), exp2, counted after 3 days
  survived neurons as % compared to neurons grown in the presence of NGF: 45.16 % NGF
ER stressed SCG neurons; Table 1B (FIG. 16), exp3, counted after 3 days
  survived neurons as % compared to neurons grown in the presence of NGF: 40.35 % NGF
Dopamine neurons; Table 3B (FIG. 17), AVG, 1 ng/ml
  survived neurons as % compared to neurons grown in the presence of GDNF: 54.25 % GDNF
Dopamine neurons; Table 3B (FIG. 17), AVG, 10 ng/ml
  survived neurons as % compared to neurons grown in the presence of GDNF: 63.09 % GDNF
Dopamine neurons; Table 3B (FIG. 17), AVG, 100 ng/ml
  survived neurons as % compared to neurons grown in the presence of GDNF: 68.97 % GDNF
Dopamine neurons; Table 3B (FIG. 17), AVG, 1000 ng/ml
  survived neurons as % compared to neurons grown in the presence of GDNF: 69.16 % GDNF

## VDLRKMRVAELKQILHSWGEECRACAEKTDYVNLIQELAPKYA (listed as Homo sapiens) [pep6]
ER stressed SCG neurons; [1]
  survived neurons as % compared to neurons grown in the presence of NGF: 78.47 % NGF
ER stressed SCG neurons; [2]
  survived neurons as % compared to neurons grown in the presence of NGF: 81.94 % NGF
ER stressed SCG neurons; [3]
  survived neurons as % compared to neurons grown in the presence of NGF: 75.00 % NGF
ER stressed SCG neurons; Table 2, AVG
  Fold change of survived neurons compared to neurons injected with PBS: 2.14 Fold to PBS
ER stressed SCG neurons; Table 2, exp1
  Fold change of survived neurons compared to neurons injected with PBS: 2.39 Fold to PBS
ER stressed SCG neurons; Table 2, exp2
  Fold change of survived neurons compared to neurons injected with PBS: 1.89 Fold to PBS
Dopamine neurons; [4]
  survived neurons as % compared to neurons grown in the presence of GDNF: 65.97 % GDNF
Dopamine neurons; [5]
  survived neurons as % compared to neurons grown in the presence of GDNF: 75.95 % GDNF
Dopamine neurons; [6]
  survived neurons as % compared to neurons grown in the presence of GDNF: 73.52 % GDNF
Dopamine neurons; [7]
  survived neurons as % compared to neurons grown in the presence of GDNF: 70.75 % GDNF
Dopamine neurons; [8]
  survived neurons as % compared to neurons grown in the presence of GDNF: 62.89 % GDNF
Dopamine neurons; [9]
  survived neurons as % compared to neurons grown in the presence of GDNF: 66.29 % GDNF
Dopamine neurons; [10]
  survived neurons as % compared to neurons grown in the presence of GDNF: 71.71 % GDNF
Dopamine neurons; [11]
  survived neurons as % compared to neurons grown in the presence of GDNF: 63.01 % GDNF
Dopamine neurons; [12]
  survived neurons as % compared to neurons grown in the presence of GDNF: 77.34 % GDNF
Dopamine neurons; [13]
  survived neurons as % compared to neurons grown in the presence of GDNF: 83.75 % GDNF
Dopamine neurons; [14]
  survived neurons as % compared to neurons grown in the presence of GDNF: 71.86 % GDNF
Dopamine neurons; [15]
  survived neurons as % compared to neurons grown in the presence of GDNF: 67.06 % GDNF
Dopamine neurons; [16]
  survived neurons as % compared to neurons grown in the presence of GDNF: 57.68 % GDNF
Dopamine neurons; [17]
  survived neurons as % compared to neurons grown in the presence of GDNF: 77.81 % GDNF
Dopamine neurons; [18]
  survived neurons as % compared to neurons grown in the presence of GDNF: 76.97 % GDNF
Dopamine neurons; [19]
  survived neurons as % compared to neurons grown in the presence of GDNF: 82.17 % GDNF
Dopamine neurons; Table 4, AVG, 1 ng/ml
  Fold change of survived neurons compared to neurons grown without growth factors: 1.07 fold
Dopamine neurons; Table 4, AVG, 10 ng/ml
  Fold change of survived neurons compared to neurons grown without growth factors: 1.23 fold
Dopamine neurons; Table 4, AVG, 100 ng/ml
  Fold change of survived neurons compared to neurons grown without growth factors: 1.19 fold
Dopamine neurons; Table 4, AVG, 1000 ng/ml
  Fold change of survived neurons compared to neurons grown without growth factors: 1.15 fold
Dopamine neurons; Table 4, exp1, 1 ng/ml
  Fold change of survived neurons compared to neurons grown without growth factors: 1.10 fold
Dopamine neurons; Table 4, exp1, 10 ng/ml
  Fold change of survived neurons compared to neurons grown without growth factors: 1.16 fold
Dopamine neurons; Table 4, exp1, 100 ng/ml
  Fold change of survived neurons compared to neurons grown without growth factors: 1.25 fold
Dopamine neurons; Table 4, exp1, 1000 ng/ml
  Fold change of survived neurons compared to neurons grown without growth factors: 1.10 fold
Dopamine neurons; Table 4, exp2, 1 ng/ml
  Fold change of survived neurons compared to neurons grown without growth factors: 1.23 fold
Dopamine neurons; Table 4, exp2, 10 ng/ml
  Fold change of survived neurons compared to neurons grown without growth factors: 1.33 fold
Dopamine neurons; Table 4, exp2, 100 ng/ml
  Fold change of survived neurons compared to neurons grown without growth factors: 1.14 fold
Dopamine neurons; Table 4, exp2, 1000 ng/ml
  Fold change of survived neurons compared to neurons grown without growth factors: 1.06 fold
Dopamine neurons; Table 4, exp3, 1 ng/ml
  Fold change of survived neurons compared to neurons grown without growth factors: 0.89 fold
Dopamine neurons; Table 4, exp3, 10 ng/ml
  Fold change of survived neurons compared to neurons grown without growth factors: 1.20 fold
Dopamine neurons; Table 4, exp3, 100 ng/ml
  Fold change of survived neurons compared to neurons grown without growth factors: 1.19 fold
Dopamine neurons; Table 4, exp3, 1000 ng/ml
  Fold change of survived neurons compared to neurons grown without growth factors: 1.27 fold
